{
  "source": "PubChem BioAssay (NCI)",
  "note": "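Cultured in 96-well plates, cells were exposed to test compound for 48 hours across five concentrations. TGI: concentration producing complete growth inhibition.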",
  "data": [
    {"test_system": "HCC-2998 colon", "assay": "DTP human tumour cell line panel, 48 h", "units": {"TGI": "µM"}, "values": [
      {"smiles": "COc1cc(/C=C2\\CCC(C)C3C2=NN(C(C)=O)C3c2cc(OC)c(OC)c(OC)c2)cc(OC)c1OC", "note": "(stereo not drawn)", "TGI": "> 100"},
      {"smiles": "NC(=O)C(N)Cc1ccc(O)cn1", "note": "(stereo not drawn)", "TGI": "> 100"},
      {"smiles": "COC(=O)C(C)(NC(=O)C(CC(=O)OC(C)(C)C)NC(=O)OC(C)(C)C)c1ccccc1", "note": "(stereo not drawn)", "TGI": "> 100"},
      {"smiles": "COc1ccc2nc3ccc(OC)cc3c(S(=O)CCCl)c2c1", "note": "(stereo not drawn)", "TGI": 46.7}
    ]},
    {"test_system": "HCT-116 colon", "assay": "DTP human tumour cell line panel, 48 h", "units": {"TGI": "µM"}, "values": [
      {"smiles": "O=Cc1ccc2c(c1)CC1(C2)Cc2ccc3c(c2C1)CCC3", "note": "(stereo not drawn)", "TGI": 19.1},
      {"smiles": "C=C(C)C(CC=C(C)C)CC12CC(CC=C(C)C)C(C)(C)C(CC=C(C)C)(C(=O)C(Cc3ccc(O)c(O)c3)=C1O)C2=O", "note": "(stereo not drawn)", "TGI": "> 100"},
      {"smiles": "CCC(=O)NC(Nc1cccc(F)c1C)(C(F)(F)F)C(F)(F)F", "TGI": "> 100"},
      {"smiles": "CCCCCN=Cc1c(O)c(O)c(C(C)C)c2cc(C)c(-c3c(C)cc4c(C(C)C)c(O)c(O)c(C=NCCCCC)c4c3O)c(O)c12", "TGI": "> 100"},
      {"smiles": "CCc1nc(N)nc(N)c1-c1ccc2nn(-c3ccccc3)[n+]([O-])c2c1", "TGI": 15.5},
      {"smiles": "O=C(O)/C=N\\Nc1nc2ccccc2[nH]1", "TGI": "> 100"},
      {"smiles": "Nc1nc(N)c2[nH]c(CNc3ccc(C(=O)O)cc3)nc2n1", "TGI": "> 100"},
      {"smiles": "CNn1c(-c2ccccc2)n[nH]c1=O", "TGI": "> 100"},
      {"smiles": "O=c1[nH]c(-c2ccc3ccccc3c2)nc2ccccc12", "TGI": "> 100"},
      {"smiles": "COc1ccc(CC2c3cc(Oc4cc(CC5c6cc(OC)c(OC)cc6CCN5C)ccc4O)c(OC)cc3CCN2C)cc1", "note": "(stereo not drawn)", "TGI": 4.6},
      {"smiles": "COc1ccc(C(C)NNC(=O)c2ccncc2)c(OC)c1", "note": "(stereo not drawn)", "TGI": "> 100"},
      {"smiles": "CC(C)(C)OC(=O)NCC(O)CNC(=O)OC(C)(C)C", "TGI": "> 100"},
      {"smiles": "O=[N+]([O-])c1cc2oc(COc3ccccc3)nc2cc1Cl", "TGI": 44.9},
      {"smiles": "CC(C)(C)c1cc(C(P(=O)(c2ccccc2)c2ccccc2)P(=O)(c2ccccc2)c2ccccc2)cc(C(C)(C)C)c1O", "TGI": 3.23},
      {"smiles": "CCc1nc(N)nc(N)c1-c1ccc(Cl)c(Cl)c1", "TGI": "> 100"},
      {"smiles": "NS(=O)(=O)c1nn2c(Br)c(-c3ccccc3)nc2s1", "TGI": 7.3},
      {"smiles": "CCN(CC)c1c(N(CC)CC)c(=O)c1=O", "TGI": 20.8},
      {"smiles": "CN(C)Cc1cc(C(=O)/C=C/c2ccc(Cl)cc2)cc(CN(C)C)c1O", "TGI": 26.5},
      {"smiles": "COc1cc(-c2cc(=O)c3c(OC)c(OC)c(OC)c(OC)c3o2)c(OC)c(OC)c1OC", "TGI": "> 100"},
      {"smiles": "COc1nc(C(=O)NNC(=O)c2nc(OC)c3ccccc3c2-c2ccccc2)c(-c2ccccc2)c2ccccc12", "TGI": "> 100"},
      {"smiles": "COc1cc(/C=C2\\CCC(C)C3C2=NN(C(C)=O)C3c2cc(OC)c(OC)c(OC)c2)cc(OC)c1OC", "note": "(stereo not drawn)", "TGI": "> 100"},
      {"smiles": "NC(=O)C(N)Cc1ccc(O)cn1", "note": "(stereo not drawn)", "TGI": "> 100"},
      {"smiles": "COC(=O)C(C)(NC(=O)C(CC(=O)OC(C)(C)C)NC(=O)OC(C)(C)C)c1ccccc1", "note": "(stereo not drawn)", "TGI": "> 100"},
      {"smiles": "COc1ccc2nc3ccc(OC)cc3c(S(=O)CCCl)c2c1", "note": "(stereo not drawn)", "TGI": 3.39}
    ]},
    {"test_system": "HL-60(TB) leukemia", "assay": "DTP human tumour cell line panel, 48 h", "units": {"TGI": "µM"}, "values": [
      {"smiles": "O=Cc1ccc2c(c1)CC1(C2)Cc2ccc3c(c2C1)CCC3", "note": "(stereo not drawn)", "TGI": "> 26.9"},
      {"smiles": "C=C(C)C(CC=C(C)C)CC12CC(CC=C(C)C)C(C)(C)C(CC=C(C)C)(C(=O)C(Cc3ccc(O)c(O)c3)=C1O)C2=O", "note": "(stereo not drawn)", "TGI": "> 100"},
      {"smiles": "CCC(=O)NC(Nc1cccc(F)c1C)(C(F)(F)F)C(F)(F)F", "TGI": "> 100"},
      {"smiles": "CCCCCN=Cc1c(O)c(O)c(C(C)C)c2cc(C)c(-c3c(C)cc4c(C(C)C)c(O)c(O)c(C=NCCCCC)c4c3O)c(O)c12", "TGI": 22.2},
      {"smiles": "CCc1nc(N)nc(N)c1-c1ccc2nn(-c3ccccc3)[n+]([O-])c2c1", "TGI": 27.4},
      {"smiles": "O=C(O)/C=N\\Nc1nc2ccccc2[nH]1", "TGI": "> 100"},
      {"smiles": "Nc1nc(N)c2[nH]c(CNc3ccc(C(=O)O)cc3)nc2n1", "TGI": "> 100"},
      {"smiles": "CNn1c(-c2ccccc2)n[nH]c1=O", "TGI": "> 100"},
      {"smiles": "O=c1[nH]c(-c2ccc3ccccc3c2)nc2ccccc12", "TGI": "> 100"},
      {"smiles": "COc1ccc(CC2c3cc(Oc4cc(CC5c6cc(OC)c(OC)cc6CCN5C)ccc4O)c(OC)cc3CCN2C)cc1", "note": "(stereo not drawn)", "TGI": 15.5},
      {"smiles": "COc1ccc(C(C)NNC(=O)c2ccncc2)c(OC)c1", "note": "(stereo not drawn)", "TGI": "> 100"},
      {"smiles": "CC(C)(C)OC(=O)NCC(O)CNC(=O)OC(C)(C)C", "TGI": "> 100"},
      {"smiles": "O=[N+]([O-])c1cc2oc(COc3ccccc3)nc2cc1Cl", "TGI": "> 100"},
      {"smiles": "CC(C)(C)c1cc(C(P(=O)(c2ccccc2)c2ccccc2)P(=O)(c2ccccc2)c2ccccc2)cc(C(C)(C)C)c1O", "TGI": "> 8.2"},
      {"smiles": "CCc1nc(N)nc(N)c1-c1ccc(Cl)c(Cl)c1", "TGI": "> 100"},
      {"smiles": "NS(=O)(=O)c1nn2c(Br)c(-c3ccccc3)nc2s1", "TGI": 36.4},
      {"smiles": "CCN(CC)c1c(N(CC)CC)c(=O)c1=O", "TGI": 7.58},
      {"smiles": "CN(C)Cc1cc(C(=O)/C=C/c2ccc(Cl)cc2)cc(CN(C)C)c1O", "TGI": 22.9},
      {"smiles": "COc1cc(-c2cc(=O)c3c(OC)c(OC)c(OC)c(OC)c3o2)c(OC)c(OC)c1OC", "TGI": "> 100"},
      {"smiles": "COc1nc(C(=O)NNC(=O)c2nc(OC)c3ccccc3c2-c2ccccc2)c(-c2ccccc2)c2ccccc12", "TGI": "> 100"},
      {"smiles": "COc1cc(/C=C2\\CCC(C)C3C2=NN(C(C)=O)C3c2cc(OC)c(OC)c(OC)c2)cc(OC)c1OC", "note": "(stereo not drawn)", "TGI": "> 100"},
      {"smiles": "NC(=O)C(N)Cc1ccc(O)cn1", "note": "(stereo not drawn)", "TGI": "> 100"},
      {"smiles": "COC(=O)C(C)(NC(=O)C(CC(=O)OC(C)(C)C)NC(=O)OC(C)(C)C)c1ccccc1", "note": "(stereo not drawn)", "TGI": "> 100"},
      {"smiles": "COc1ccc2nc3ccc(OC)cc3c(S(=O)CCCl)c2c1", "note": "(stereo not drawn)", "TGI": 6.86}
    ]},
    {"test_system": "HOP-62 NSCLC", "assay": "DTP human tumour cell line panel, 48 h", "units": {"TGI": "µM"}, "values": [
      {"smiles": "O=Cc1ccc2c(c1)CC1(C2)Cc2ccc3c(c2C1)CCC3", "note": "(stereo not drawn)", "TGI": 27.7},
      {"smiles": "C=C(C)C(CC=C(C)C)CC12CC(CC=C(C)C)C(C)(C)C(CC=C(C)C)(C(=O)C(Cc3ccc(O)c(O)c3)=C1O)C2=O", "note": "(stereo not drawn)", "TGI": "> 100"},
      {"smiles": "CCC(=O)NC(Nc1cccc(F)c1C)(C(F)(F)F)C(F)(F)F", "TGI": "> 100"},
      {"smiles": "CCCCCN=Cc1c(O)c(O)c(C(C)C)c2cc(C)c(-c3c(C)cc4c(C(C)C)c(O)c(O)c(C=NCCCCC)c4c3O)c(O)c12", "TGI": "> 100"},
      {"smiles": "CCc1nc(N)nc(N)c1-c1ccc2nn(-c3ccccc3)[n+]([O-])c2c1", "TGI": 25.3},
      {"smiles": "O=C(O)/C=N\\Nc1nc2ccccc2[nH]1", "TGI": "> 100"}
    ]}
  ]
}
